Results from patent US10413579B2, “Pharmaceutical composition for preventing or treating asthma comprising Pistacia weinmannifolia J. Poiss. ex Franch extract or fraction thereof” (Korea Research Institute of Bioscience and Biotechnology, priority 2013, dated 2019).

Assays:
Type in all cases: in vivo, mouse
serum IgE = experiment: Serum IgE in ovalbumin-sensitized asthma mice (immunoenzymatic assay); settings: 30 mg/kg PO
Protocol: (§1) In the present experiment, 6-week-old Balb/c female mice having a body weight of about 20 g in average were used as experimental animals. After 1 week of acclimation, animals showing no abnormal findings on physical examination were used as subjects. 2 mg of aluminium hydroxide (A8222, Sigma, St. Louis, Mo.) and 20 μg of ovalbumin (A5503, Sigma, St. Louis, Mo.) were suspended in 200 μl of phosphate buffer (pH 7.4) and then injected into the peritoneal cavity of mouse for sensitization. On days 21 to 23 after the first intraperitoneal administration of ovalbumin, inhalation challenge was performed for 30 min with 1% ovalbumin using an ultrasonic atomizer. 24 hours after the last antigen administration, airway hyperresponsiveness was measured. 48 hours later, a lethal dose of pentobarbital (Entobal, Hanlim Pharmaceutical Co., Ltd.) was administered, body weight measurement and bronchotomy were performed, and bronchoalveolar lavage was performed with a total 1.2 mL of physiological saline, and then, samples were collected. […] Seven white mice were used for each group.
(§2) To measure serum IgE and ovalbumin-specific IgE, an immunoenzymatic assay was used. IgE level was measured using a commercially available kit (Biolegend Ins., California, USA). […] For color development, 3,3′,5,5′-tetramethylbezidine substrate was allowed to react, and the spectroscopic absorbance was measured at 450 nm.

ovalbumin-specific IgE = experiment: Ovalbumin-specific IgE in serum of ovalbumin-sensitized asthma mice (ELISA); settings: 30 mg/kg PO, mean±S.E.
Protocol: as §1, §2

[1] = system: ovalbumin-sensitized asthma animal models; experiment: Inflammatory cells in bronchoalveolar lavage fluid of ovalbumin-sensitized asthma mice; settings: 30 mg/kg PO
Protocol: as §1

interleukin-4 = experiment: Interleukin-4 in bronchoalveolar lavage fluid (ELISA); settings: 30 mg/kg PO, mean±S.E.
Protocol: as §1, with “group. […]” for “group.”
(§3) Briefly, 100 μl of bronchoalveolar lavage fluid was added to a well plate and allowed to react for 1 hour. […] Absorbance was measured at 450 nm.

interleukin-5 = experiment: Interleukin-5 in bronchoalveolar lavage fluid (ELISA); settings: 30 mg/kg PO, mean±S.E.
Protocol: as §1, with “group. […]” for “group.”
as §3

interleukin-13 = experiment: Interleukin-13 in bronchoalveolar lavage fluid (ELISA); settings: 30 mg/kg PO, mean±S.E.
Protocol: as §1, with “group. […]” for “group.”
as §3

In the case of `CC(C)(O)c1ccccc1CC[C@@H](SCC1(CC(=O)O)CC1)c1cccc(/C=C/c2ccc3ccc(Cl)cc3n2)c1` [Mon, montelukast], the “serum IgE antibody level” value (serum IgE) is reported as 1.8 ± 0.28 µg/mL, the IgE (serum IgE; mean±S.E., Table 1) is reported as 1.8 ± 0.28 ng/mL and the “OVA-specific IgE” value (ovalbumin-specific IgE) is reported as 108 ± 83.0 ng/mL. For the same molecule, the “number of eosinophils in bronchoalveolar lavage fluid” value ([1]; OVA group (74±16.0)×10^5) was 36±20.4 ×10^5, the “number of total inflammatory cells in bronchoalveolar lavage fluid” value ([1]; OVA group (180±22.2)×10^5) was 98±19.3 ×10^5 and the IL-4 (interleukin-4) was 34.6 ± 6.52 pg/mL. For the same molecule, the IL-5 (interleukin-5) was 32.4 ± 4.46 pg/mL and the IL-13 (interleukin-13) was 65.7 ± 18.86 pg/mL.
